# In patent publication US4069337A, “2-Substituted-indole-1-lower-alkanecarboxamides having anti-secretory or anti-ulcer activity” (Sterling Drug Inc., priority 1976, dated 1978):
# Where two headings read alike, the source gives them in different places.
# Columns and labels:
# [1] = test system: secretion of gastric fluids; assay: anti-secretory activity in pylorus-ligated rats (method of Shay et al.); format: in vivo, male albino Wistar rats
# Experimental: In standard biological test procedures, described generally by Shay et al., Gastroenterology 5, 43 (1945) and 26, 906 (1954) and by Selmici et al., Acta Physiol. Acad. Sci. Hung. […] Anti-secretory activity was determined in male albino Wistar rats weighing approximately 180 g. using the method described by Shay et al. which is described as follows: the rats were divided into medicated groups of at least five rats each and control groups of ten rats. The rats were medicated orally once daily for 2 days prior to stomach ligation and once again immediately following ligation. All drugs were administered as the free base, and control rats received only the vehicle of medication. The rats were housed individually in wire cages, food was withdrawn 48 hours prior to surgery, and water was withdrawn at the time of surgery. Laparotomy was performed under light ether anesthesia, the pyloric-duodenal junction was ligated, and the wound was closed with metal clips and sprayed with a protective surgical dressing. Five hours following surgery, the rats were sacrificed, the stomach was removed, and the gastric juice collected. The gastric fluid was centrifuged, the total volume, color, and volume of solids were recorded. The pH of the gastric fluid was then determined on a Beckman pH meter, and the "free" and "total" hydrochloric acid content of each gastric sample was determined by titrating an aliquot of the gastric fluid (diluted to approximately 10 ml. with distilled water) by titrating with 0.1N sodium hydroxide against Toepfers reagent and phenolphthalein, respectively. By determining the milliequivalents of hydrochloric acid per milliliter of gastric juice and knowing the total volume of gastric juice secreted by each rat, the total acid output can be calculated. Since pH is a function of "free" acid, the activity of the test compounds can be evaluated by comparison of the mean "free" acid of medicated rats with the mean "free" acid of the controls, and the activity can thus be expressed in terms of percent inhibition of free acid.
# (§1) Data obtained on administration of the compounds of formula I in rats in the anti-secretory and anti-ulcer tests described above are given in the table below. Unless noted otherwise, data were obtained on oral administration. Results in the anti-secretory activity tests are given in terms of the pH of the gastric fluid in the test animals and the percent inhibition of free acid, while results in the anti-ulcer test are given either in terms of the percent inhibition of ulcers or as a ratio representing the number of animals with ulcers (as the numerator) to the total number of animals in the test group (as the denominator). All doses are expressed in mg./kg.
# [2] = test system: reserpine-induced stomach ulceration; assay: anti-ulcer activity, reserpine-induced ulcer test (method of Selmici et al.); format: in vivo, male, albino, Sprague-Dawley rats; conditions: for inhibition in vivo at 100 mg/kg / Anti-Ulcer: ratio of number of animals with ulcers to total number of animals in the test group: 100 mg./kg.
# Experimental: The anti-ulcer activity of the compounds was determined using the reserpine-induced anti-ulcer test method, described by Selmici et al., which is described briefly as follows: male, albino, Sprague-Dawley rats, weighing approximately 300 g., were divided into medicated and control groups of at least five rats each, and one positive control group of five rats medicated with a known drug at the active dose was run with each experiment. The rats were medicated forty-eight, twenty-four, and one hour before receiving an injection of reserpine. All test drugs were administered orally in terms of base, and the control rats received only the vehicle of medication. The rats were housed individually in wire cages, and food was withdrawn 24 hours prior to injection of reserpine, while water was allowed ad libitum. One hour following the third medication, 5.0 mg. of reserpine per kilogram of body weight in a concentration of 5 mg./ml. was injected intramuscularly in each rat. Eighteen hours after injection the rats were sacrificed, their stomachs removed, opened along the greater curvature, rinsed in warm saline, and pinned to a cork board for gross observation. The stomachs were examined for the number and size of ulcerations located in the glandular portion of the stomach with the aid of a one millimeter grid ocular with a 10x dissecting microscope. The degree of ulceration was arbitrarily graded according to the number and size of the ulcers as follows:
# The points were added together and divided by the number of rats in each group to give an ulcer score, and the difference in the mean scores of the medicated and control group was expressed as percent inhibition of ulceration. Alternatively, the results can be expressed as a ratio of the total number of rats with any degree of ulceration (as the numerator) to the total number of rats in the test group (as the denominator).
# as §1
# [3] = test system: reserpine-induced stomach ulceration; assay: as above; format: in vivo, male, albino, Sprague-Dawley rats; conditions: for inhibition in vivo at 50 mg/kg: Rattus norvegicus, sc, 18 h; for Anti-Ulcer: ratio of number of animals with ulcers to total number of animals in the test group: s.c., 50 mg./kg.
# [4] = Rattus norvegicus, po, 5 h, oral, 100 mg./kg., read-out: % Inhibition of Free Acid
# [5] = Rattus norvegicus, intraduodenal, 5 h, i.d., 100 mg./kg., read-out: % Inhibition of Free Acid
# [6] = Rattus norvegicus, ip, 5 h, i.p., 100 mg./kg., read-out: % Inhibition of Free Acid
# [7] = Rattus norvegicus, sc, 5 h, s.c., 100 mg./kg., read-out: % Inhibition of Free Acid
smiles,measurement,setting,value
"CNC(=O)Cn1c(C)c(C)c2ccccc21 [Example 1B, 2,3-Dimethyl-1-indole-N-methylacetamide]",inhibition in vivo at 6.25 mg/kg,"[1]; Rattus norvegicus, intraduodenal, 5 h, i.d., 6.25 mg./kg., read-out: % Inhibition of Free Acid",46%
same,inhibition in vivo at 100 mg/kg,[1]; [4],45%
same,pH of the gastric fluid,"[1]; i.d., 6.25 mg./kg.",1.4
same,pH of the gastric fluid,"[1]; oral, 100 mg./kg.",1.8
same,inhibition in vivo at 100 mg/kg,"[2]; Rattus norvegicus, 18 h, oral",91%
same,inhibition in vivo at 50 mg/kg,[3],93%
"Cc1c(C)n(CC(=O)NCCO)c2ccccc12 [Example 3A, 2,3-dimethyl-1-indole-N-(2-hydroxyethyl)acetamide]",inhibition in vivo at 100 mg/kg,[1]; [4],22%
same,pH of the gastric fluid,"[1]; oral, 100 mg./kg.",1.4
same,inhibition in vivo at 100 mg/kg,"[2]; Rattus norvegicus, 18 h, oral",84%
same,inhibition in vivo at 50 mg/kg,[3],69%
"Cc1c(C)n(CCC(N)=O)c2ccccc12 [Example 4A, β-(2,3-dimethyl-1-indole)propionamide]",inhibition in vivo at 100 mg/kg,[1]; [4],100%
same,pH of the gastric fluid,"[1]; oral, 100 mg./kg.",5.3
same,inhibition in vivo at 1.56 mg/kg,"[2]; Rattus norvegicus, 18 h, oral, 1.56 mg./kg.",43%
same,inhibition in vivo at 6.25 mg/kg,"[2]; Rattus norvegicus, 18 h, oral, 6.25 mg./kg.",48%
same,inhibition in vivo at 25 mg/kg,"[2]; Rattus norvegicus, 18 h, oral",93%
same,inhibition in vivo at 50 mg/kg,[3],89%
"Cc1c(C)n(C(N)=O)c2ccc(Cl)cc12 [Example 5, 2,3-dimethyl-5-chloro-1-indolecarboxamide]",inhibition in vivo at 100 mg/kg,[1]; [4],41%
same,pH of the gastric fluid,"[1]; oral, 100 mg./kg.",2.0
same,inhibition in vivo at 25 mg/kg,"[2]; Rattus norvegicus, 18 h, oral",0%
"Cc1c(C=O)c2ccccc2n1CC(N)=O [Example 6, 2-methyl-3-formyl-1-indoleacetamide]",inhibition in vivo at 100 mg/kg,"[1]; Rattus norvegicus, 5 h, oral, 100 mg./kg., read-out: % Inhibition of Free Acid",0%
same,pH of the gastric fluid,"[1]; oral, 100 mg./kg.",1.1
same,inhibition in vivo at 100 mg/kg,"[2]; Rattus norvegicus, 18 h, oral",0%
"Cc1c(C)n(CC(N)=S)c2ccccc12 [Example 7A, 2,3-dimethyl-1-indolethioacetamide]",inhibition in vivo at 100 mg/kg,[1]; [4],58%
same,pH of the gastric fluid,"[1]; oral, 100 mg./kg.",2.3
same,inhibition in vivo at 25 mg/kg,"[2]; Rattus norvegicus, 18 h, oral",75%
"Cc1c(C)n(CCC(N)=S)c2ccccc12 [Example 7B, β(2,3-dimethyl-1-indole)thiopropionamide]",inhibition in vivo at 100 mg/kg,[1]; [4],60%
same,pH of the gastric fluid,"[1]; oral, 100 mg./kg.",2.2
same,inhibition in vivo at 100 mg/kg,"[2]; Rattus norvegicus, 18 h, oral",100%
"Cc1c(CO)c2ccccc2n1CCC(N)=O [Example 8A, β-(2-methyl-3-hydroxymethyl-1-indole)propionamide]",inhibition in vivo at 100 mg/kg,[1]; [5],100%
same,inhibition in vivo at 100 mg/kg,[1]; [6],100%
same,inhibition in vivo at 100 mg/kg,[1]; [4],69%
same,inhibition in vivo at 100 mg/kg,[1]; [7],100%
same,pH of the gastric fluid,"[1]; i.d., 100 mg./kg.",5.6
same,pH of the gastric fluid,"[1]; i.p., 100 mg./kg.",7.0
same,pH of the gastric fluid,"[1]; oral, 100 mg./kg.",1.9
same,pH of the gastric fluid,"[1]; s.c., 100 mg./kg.",6.7
same,inhibition in vivo at 100 mg/kg,"[2]; Rattus norvegicus, 18 h, oral",56%
"Cc1c(CO)c2ccccc2n1CCCC(N)=O [Example 8B, γ-(2-Methyl-3-hydroxymethyl-1-indole)butyramide]",inhibition in vivo at 100 mg/kg,[1]; [5],5%
same,inhibition in vivo at 100 mg/kg,[1]; [6],62%
same,inhibition in vivo at 100 mg/kg,[1]; [4],5%
same,inhibition in vivo at 100 mg/kg,[1]; [7],12%
same,pH of the gastric fluid,"[1]; i.d., 100 mg./kg.",1.2
same,pH of the gastric fluid,"[1]; i.p., 100 mg./kg.",2.4
same,pH of the gastric fluid,"[1]; oral, 100 mg./kg.",1.3
same,pH of the gastric fluid,"[1]; s.c., 100 mg./kg.",1.2
same,inhibition in vivo at 100 mg/kg,"[2]; Rattus norvegicus, 18 h, oral",0%
"Cc1c(CO)c2ccccc2n1CC(N)=O [Example 8C, 2-Methyl-3-hydroxymethyl-1-indoleacetamide]",inhibition in vivo at 100 mg/kg,[1]; [5],30%
same,inhibition in vivo at 100 mg/kg,[1]; [6],61%
same,inhibition in vivo at 100 mg/kg,[1]; [4],62%
same,inhibition in vivo at 100 mg/kg,[1]; [7],100%
same,pH of the gastric fluid,"[1]; i.d., 100 mg./kg.",1.1
same,pH of the gastric fluid,"[1]; i.p., 100 mg./kg.",2.0
same,pH of the gastric fluid,"[1]; oral, 100 mg./kg.",1.5
same,pH of the gastric fluid,"[1]; s.c., 100 mg./kg.",6.9
same,Anti-Ulcer: ratio of number of animals with ulcers to total number of animals in the test group,[3],0/5
"NC(=O)CCn1c(-c2ccccc2)c(CO)c2ccccc21 [Example 8D, β-(2-Phenyl-3-hydroxymethyl-1-indole)propionamide]",inhibition in vivo at 100 mg/kg,[1]; [4],28%
same,inhibition in vivo at 100 mg/kg,[1]; [7],38%
same,pH of the gastric fluid,"[1]; oral, 100 mg./kg.",1.5
same,pH of the gastric fluid,"[1]; s.c., 100 mg./kg.",1.4
same,Anti-Ulcer: ratio of number of animals with ulcers to total number of animals in the test group,[2]; oral,0/5
"Cc1c(CO)c2cc(F)ccc2n1CCC(N)=O [Example 8E, β-(2-Methyl-3-hydroxymethyl-5-fluoro-1-indole)propionamide]",inhibition in vivo at 100 mg/kg,[1]; [5],89%
same,inhibition in vivo at 100 mg/kg,[1]; [6],100%
same,inhibition in vivo at 100 mg/kg,[1]; [4],22%
same,inhibition in vivo at 100 mg/kg,[1]; [7],100%
same,pH of the gastric fluid,"[1]; i.d., 100 mg./kg.",3.5
same,pH of the gastric fluid,"[1]; i.p., 100 mg./kg.",5.9
same,pH of the gastric fluid,"[1]; oral, 100 mg./kg.",1.1
same,pH of the gastric fluid,"[1]; s.c., 100 mg./kg.",6.1
same,Anti-Ulcer: ratio of number of animals with ulcers to total number of animals in the test group,[3],1/3
"Cc1c(C(O)C(F)(F)F)c2ccccc2n1CCC(N)=O (stereo not drawn) [Example 8F, β-[2-Methyl-3-(2-trifluoro-1-hydroxyethyl)-1-indole]-propionamide]",inhibition in vivo at 100 mg/kg,[1]; [5],69%
same,inhibition in vivo at 100 mg/kg,[1]; [6],24%
same,inhibition in vivo at 100 mg/kg,[1]; [4],2%
same,inhibition in vivo at 100 mg/kg,[1]; [7],7%
same,pH of the gastric fluid,"[1]; i.d., 100 mg./kg.",1.5
same,pH of the gastric fluid,"[1]; i.p., 100 mg./kg.",1.2
same,pH of the gastric fluid,"[1]; oral, 100 mg./kg.",1.0
same,pH of the gastric fluid,"[1]; s.c., 100 mg./kg.",1.0
same,inhibition in vivo at 50 mg/kg,"[2]; Rattus norvegicus, 18 h, oral, 50 mg./kg.",45%
"Cc1c(CO)n(CCC(N)=O)c2ccccc12 [Example 8G, β-(2-hydroxymethyl-3-methyl-1-indole)propionamide]",inhibition in vivo at 100 mg/kg,[1]; [5],33%
same,inhibition in vivo at 100 mg/kg,[1]; [6],34%
same,inhibition in vivo at 100 mg/kg,[1]; [4],22%
same,pH of the gastric fluid,"[1]; i.d., 100 mg./kg.",1.4
same,pH of the gastric fluid,"[1]; i.p., 100 mg./kg.",1.7
same,pH of the gastric fluid,"[1]; oral, 100 mg./kg.",1.3
same,Anti-Ulcer: ratio of number of animals with ulcers to total number of animals in the test group,[2]; oral,3/5
"Cc1cn(CC(N)=O)c2ccccc12 [Reference, 3-methyl-1-indole-acetamide, reference compound]",inhibition in vivo at 100 mg/kg,[1]; [4],62%
same,pH of the gastric fluid,"[1]; oral, 100 mg./kg.",2.3
same,anti-secretory activity (in words),"[1]; rat, in vivo",has anti-secretory and anti-ulcer activities
same,inhibition in vivo at 100 mg/kg,"[2]; Rattus norvegicus, 18 h, oral",75%
same,anti-ulcer activity (in words),"[2]; rat, in vivo",has anti-secretory and anti-ulcer activities
